From US5981530A, “Piperazine derivative” (Senju Pharmaceutical Co., Ltd., priority 1995, dated 1999)
Structures can show the parent of a compound that is named as a salt.

System: rat palpebral PCA reaction
Assay: Passive cutaneous anaphylactic (PCA) reaction of the rat palpebra
Format: in vivo, rat (male Wistar)
Conditions: 100 mg/5 ml/kg oral, 60 min prior to induction of PCA; for Degree of Inhibition (%): vs negative control
Procedure: Effect of the compound of the invention on the passive cutaneous anaphylactic (PCA) reaction of the rat palpebra
The effect of the compound of the invention on rat palpebral PCA reaction was investigated.
Male Wistar rats weighing about 120 g were purchased from Japan SLC for the experiment.
Using a microsyringe, 25 μl of antiserum (32-fold dilution) was injected beneath the palpebral conjunctiva of the right eye of rats under pentobarbital anesthesia. Forty-eight (48) hours after injection of antiserum, a mixture of 2% chicken egg albumin and 1% Evans blue, 5 ml/kg, was administered into the tail vein to induce PCA reaction. Thirty (30) minutes after induction, the rat was sacrificed and the stained portion of the palpebral conjunctiva of the right eye was excised. The dye was extracted into 5 ml of formamide, and the amount of the dye was determined at 625 nm.
The test substance, 100 mg/5 ml/kg, was administered orally 60 minutes prior to induction of PCA reaction.
As a negative control, 5 ml/kg of 0.5% carboxymethylcellulose (CMC) was administered orally. As a positive control, 100 mg/5 ml/kg of diphenhydramine hydrochloride, a commercial antihistaminic, was administered orally.

[1] = Table 1, mean ± SD (n = 5), negative control 0.662 ± 0.112, *1 p < 0.05, *2 p < 0.001
[2] = Table 1, n = 5, *1 p < 0.05, *2 p < 0.001

Row | Structure (SMILES) | Absorbance (extracted dye, 625 nm) (Table 2, mean ± SD (n = 6), negative control 0.486 ± 0.093, *1 p < 0.001) | Degree of Inhibition (%) (Table 2, n = 6, *1 p < 0.001) | Absorbance (extracted dye, 625 nm) [1] | Degree of Inhibition (%) [2]
1 | O=C(O)c1ccccc1N1CCN(CC(O)COc2cccc3[nH]ccc23)CC1 (stereo not drawn) [Example 5, 3-[4-(2-Carboxyphenyl)piperazinyl]-1-(1H-indol-4-yloxy)propan-2-ol] | 0.276 ± 0.048 | 43.2% |  | 
2 | COc1ccc(OCC(O)CN2CCN(c3ccccc3C(=O)O)CC2)c(C(C)(C)C)c1 (stereo not drawn) [Example 1, 3-[4-(2-Carboxyphenyl)piperazinyl]-1-(2-tert-butyl-4-methoxyphenoxy)propan-2-ol] |  |  | 0.299 ± 0.056 | 54.8%
3 | CN(C)CCOC(c1ccccc1)c1ccccc1 [Diphenhydramine HCl, diphenhydramine hydrochloride, reference compound] |  |  | 0.413 ± 0.126 | 37.6%
